Measured values reported in US9255078B2, “Micheliolide derivatives, medicinal composition, producing method and usage thereof” (ACCENDATECH, priority 2010, dated 2016).
Counter-ions that a name gives are not always drawn. Like-named read-outs stand apart in the source and are kept apart here.

What was measured:
Type in all cases: cell-based
Settings in all cases: incubated 18 hours, read-out: inhibitory activity against different cancer cells (IC50)
K562 = experiment: MTT assay, K562 chronic leukemia cell lines
Procedure: (§1) A variety of cancer cells are suspended to 2×10^5/mL, and then added into 24-hole Round-bottomed tissue culture plate. After that micheliolide and its derivatives are added, herein a test with one density occupies 5 holes. The resulting suspension are incubated (under 37° C., 5% CO2) for 18 hours to allow the compounds to take effect. A absorbance (A) value is measured by using the method of MTT assay and an enzyme-linked detector under 570 nm wavelength, and then the inhibitory activity of the compounds is concluded.
(§2) In Table 1, HL-60, K562, MCF-7, CNE-1, CNE-2, SW620, A549, HepG2, Ec9706, SGC7901, SW1116, A498, ASPC-1, HT-29, HeLa, GL15, B16F1, T24, SKOV3, SW579, PC-3, represents acute leukemia cell lines, Chronic leukemia cell lines, Breast cancer cell lines, High differentiation nasopharyngeal carcinoma cell line, Poorly differentiated nasopharyngeal carcinoma cell lines, Colorectal cancer cell line, Lung cancer cell lines, Hepatocellular carcinoma cell lines, Esophageal cancer cell line, Gastric cancer cell line, Colon cancer cell line, Renal cell carcinoma cell line, Pancreatic cancer cell line, Colon cancer cell lines, uterine cervical cancer cell lines, Horny man neuroblastoma cell lines, Melanoma cell line, human bladder cancer cell line, ovarian cancer cell lines, thyroid cancer cells, prostate cancer cell lines, respectively.

HL-60 = experiment: MTT assay, HL-60 acute leukemia cell lines
Procedure: as §1, §2

SKOV3 = experiment: MTT assay, SKOV3 ovarian cancer cell lines
Procedure: as §1, §2

GL15 = experiment: MTT assay, GL15 neuroblastoma cell lines
Procedure: as §1, §2

T24 = experiment: MTT assay, T24 human bladder cancer cell line
Procedure: as §1, §2

SGC7901 = experiment: MTT assay, SGC7901 gastric cancer cell line
Procedure: as §1, §2

HT-29 = experiment: MTT assay, HT-29 colon cancer cell lines
Procedure: as §1, §2

HepG-2 = experiment: MTT assay, HepG-2 hepatocellular carcinoma cell lines
Procedure: as §1, §2

MCF-7 = experiment: MTT assay, MCF-7 breast cancer cell lines
Procedure: as §1, §2

CNE-2 = experiment: MTT assay, CNE-2 poorly differentiated nasopharyngeal carcinoma cell lines
Procedure: as §1, §2

SW620 = experiment: MTT assay, SW620 colorectal cancer cell line
Procedure: as §1, §2

CNE-1 = experiment: MTT assay, CNE-1 high differentiation nasopharyngeal carcinoma cell line
Procedure: as §1, §2

ASPC-1 = experiment: MTT assay, ASPC-1 pancreatic cancer cell line
Procedure: as §1, §2

PC-3 = experiment: MTT assay, PC-3 prostate cancer cell lines
Procedure: as §1, §2

Ec9706 = experiment: MTT assay, Ec9706 esophageal cancer cell line
Procedure: as §1, §2

B16F1 = experiment: MTT assay, B16F1 melanoma cell line
Procedure: as §1, §2

SW579 = experiment: MTT assay, SW579 thyroid cancer cells
Procedure: as §1, §2

A498 = experiment: MTT assay, A498 renal cell carcinoma cell line
Procedure: as §1, §2

HeLa = experiment: MTT assay, HeLa uterine cervical cancer cell lines
Procedure: as §1, §2

A549 = experiment: MTT assay, A549 lung cancer cell lines
Procedure: as §1, §2

SW1116 = experiment: MTT assay, SW1116 colon cancer cell line
Procedure: as §1, §2

C=C1C(=O)O[C@H]2[C@H]1CCC(C)=C1CC[C@@](C)(OC(=O)CC)[C@@H]12 [Compound III, 4-propionylmicheliolide]
IC50 (K562; Homo sapiens, K562, 18 h): 6.7 nM
IC50 (HL-60; Homo sapiens, HL-60, 18 h): 4.5 nM
IC50 (SKOV3; Homo sapiens, SK-OV-3, 18 h): 9.4 nM
IC50 (GL15; Neuroblastoma cell, 18 h): 14.3 nM
IC50 (T24; Homo sapiens, T-24, 18 h): 13.6 nM
IC50 (SGC7901; Homo sapiens, SGC-7901, 18 h): 14.7 nM
IC50 (HT-29; Homo sapiens, HT-29, 18 h): 9.8 nM
IC50 (HepG-2; Homo sapiens, HepG2, 18 h): 15.4 nM
IC50 (MCF-7; Homo sapiens, MCF7, 18 h): 3.4 nM
IC50 (CNE-2; Homo sapiens, CNE-2, 18 h): 12.4 nM
IC50 (SW620; Homo sapiens, SW-620, 18 h): 5.6 nM
IC50 (CNE-1; 18 h): 5.9 nM
IC50 (ASPC-1; Homo sapiens, ASPC1, 18 h): 15.1 nM
IC50 (PC-3; Homo sapiens, PC-3, 18 h): 11.4 nM
IC50 (Ec9706; Homo sapiens, EC9706, 18 h): 7.6 nM
IC50 (B16F1; Mus musculus, B16-F1, 18 h): 13.2 nM
IC50 (SW579; SW579, 18 h): 22.5 nM
IC50 (A498; Homo sapiens, A498, 18 h): 5.3 nM
IC50 (HeLa; Homo sapiens, 18 h): 17.3 nM
IC50 (A549; Homo sapiens, A549, 18 h): 7.7 nM
IC50 (SW1116; Homo sapiens, SW 1116, 18 h): 21.5 nM

CC1=C2CC[C@@](C)(O)[C@@H]2[C@H]2OC(=O)[C@@H](CN(C)C)[C@@H]2CC1 [Compound V, 11βH,13-Dihydro, 13-dimethylaminomicheliolide hydrochloride]
IC50 (K562; hydrochloride): 21.4 nM
IC50 (HL-60; hydrochloride): 11.5 nM
IC50 (SKOV3; hydrochloride): 15.4 nM
IC50 (GL15; hydrochloride): 25.8 nM
IC50 (T24; hydrochloride): 22.5 nM
IC50 (SGC7901; hydrochloride): 24.9 nM
IC50 (HT-29; hydrochloride): 19.2 nM
IC50 (HepG-2; hydrochloride): 27.9 nM
IC50 (MCF-7; hydrochloride): 26.8 nM
IC50 (CNE-2; hydrochloride): 16.9 nM
IC50 (SW620; hydrochloride): 13.5 nM
IC50 (CNE-1; hydrochloride): 22.5 nM
IC50 (ASPC-1; hydrochloride): 33.6 nM
IC50 (PC-3; hydrochloride): 23.5 nM
IC50 (Ec9706; hydrochloride): 15.7 nM
IC50 (B16F1; hydrochloride): 18.6 nM
IC50 (SW579; hydrochloride): 32.6 nM
IC50 (A498; hydrochloride): 16.3 nM
IC50 (HeLa; hydrochloride): 33.4 nM
IC50 (A549; hydrochloride): 18.1 nM
IC50 (SW1116; hydrochloride): 31.2 nM

CC1=C2CC[C@@](C)(O)[C@@H]2[C@H]2OC(=O)[C@@H](CN(C)C)[C@@H]2CC1 [Compound II, 11βH,13-Dihydro, 13-dimethylaminomicheliolide]
IC50 (K562): 4.2 nM
IC50 (HL-60): 2.4 nM
IC50 (SKOV3): 5.9 nM
IC50 (GL15): 12.6 nM
IC50 (T24; Homo sapiens, T-24, 18 h): 14.2 nM
IC50 (SGC7901; Homo sapiens, SGC-7901, 18 h): 14.6 nM
IC50 (HT-29): 4.8 nM
IC50 (HepG-2): 4.5 nM
IC50 (MCF-7): 4.6 nM
IC50 (CNE-2; Homo sapiens, CNE-2, 18 h): 16.5 nM
IC50 (SW620): 5.8 nM
IC50 (CNE-1): 11.2 nM
IC50 (ASPC-1): 3.9 nM
IC50 (PC-3): 8.7 nM
IC50 (Ec9706; Homo sapiens, EC9706, 18 h): 9.2 nM
IC50 (B16F1): 3.4 nM
IC50 (SW579; SW579, 18 h): 17.3 nM
IC50 (A498; Homo sapiens, A498, 18 h): 12.4 nM
IC50 (HeLa): 9.4 nM
IC50 (A549): 7.2 nM
IC50 (SW1116): 11.5 nM

C=C1C(=O)O[C@H]2[C@H]1CC[C@]1(C)O[C@@]13CC[C@@](C)(O)[C@H]23 [Compound IV, 1,10-Epoxymicheliolide]
IC50 (K562; Homo sapiens, K562, 18 h): 9.7 nM
IC50 (HL-60; Homo sapiens, HL-60, 18 h): 5.8 nM
IC50 (SKOV3; Homo sapiens, SK-OV-3, 18 h): 10.4 nM
IC50 (GL15; Neuroblastoma cell, 18 h): 21.5 nM
IC50 (T24; Homo sapiens, T-24, 18 h): 7.9 nM
IC50 (SGC7901; Homo sapiens, SGC-7901, 18 h): 13.4 nM
IC50 (HT-29; Homo sapiens, HT-29, 18 h): 9.8 nM
IC50 (HepG-2; Homo sapiens, HepG2, 18 h): 7.4 nM
IC50 (MCF-7; Homo sapiens, MCF7, 18 h): 8.9 nM
IC50 (CNE-2; Homo sapiens, CNE-2, 18 h): 5.6 nM
IC50 (SW620; Homo sapiens, SW-620, 18 h): 3.8 nM
IC50 (CNE-1; 18 h): 6.7 nM
IC50 (ASPC-1; Homo sapiens, ASPC1, 18 h): 26.4 nM
IC50 (PC-3; Homo sapiens, PC-3, 18 h): 17.2 nM
IC50 (Ec9706; Homo sapiens, EC9706, 18 h): 6.6 nM
IC50 (B16F1; Mus musculus, B16-F1, 18 h): 5.2 nM
IC50 (SW579; SW579, 18 h): 12.4 nM
IC50 (A498; Homo sapiens, A498, 18 h): 4.3 nM
IC50 (HeLa; Homo sapiens, 18 h): 9.7 nM
IC50 (A549; Homo sapiens, A549, 18 h): 5.7 nM
IC50 (SW1116; Homo sapiens, SW 1116, 18 h): 11.7 nM
